From article PMC8550792, “Evolution of kinase polypharmacology across HSP90 drug discovery” (Cell Chemical Biology, 2021) come the findings set out here.

What all share (test): biochemical
Holding throughout (assay type): biochemical

Test [1] has as its target T1, 382 unique human kinases (Homo sapiens, UniProt Q12866, A708S).
T1 construct: purchased Reaction Biology (HotSpot contract assay)
T1 sequence (Q12866 21-999 A708S): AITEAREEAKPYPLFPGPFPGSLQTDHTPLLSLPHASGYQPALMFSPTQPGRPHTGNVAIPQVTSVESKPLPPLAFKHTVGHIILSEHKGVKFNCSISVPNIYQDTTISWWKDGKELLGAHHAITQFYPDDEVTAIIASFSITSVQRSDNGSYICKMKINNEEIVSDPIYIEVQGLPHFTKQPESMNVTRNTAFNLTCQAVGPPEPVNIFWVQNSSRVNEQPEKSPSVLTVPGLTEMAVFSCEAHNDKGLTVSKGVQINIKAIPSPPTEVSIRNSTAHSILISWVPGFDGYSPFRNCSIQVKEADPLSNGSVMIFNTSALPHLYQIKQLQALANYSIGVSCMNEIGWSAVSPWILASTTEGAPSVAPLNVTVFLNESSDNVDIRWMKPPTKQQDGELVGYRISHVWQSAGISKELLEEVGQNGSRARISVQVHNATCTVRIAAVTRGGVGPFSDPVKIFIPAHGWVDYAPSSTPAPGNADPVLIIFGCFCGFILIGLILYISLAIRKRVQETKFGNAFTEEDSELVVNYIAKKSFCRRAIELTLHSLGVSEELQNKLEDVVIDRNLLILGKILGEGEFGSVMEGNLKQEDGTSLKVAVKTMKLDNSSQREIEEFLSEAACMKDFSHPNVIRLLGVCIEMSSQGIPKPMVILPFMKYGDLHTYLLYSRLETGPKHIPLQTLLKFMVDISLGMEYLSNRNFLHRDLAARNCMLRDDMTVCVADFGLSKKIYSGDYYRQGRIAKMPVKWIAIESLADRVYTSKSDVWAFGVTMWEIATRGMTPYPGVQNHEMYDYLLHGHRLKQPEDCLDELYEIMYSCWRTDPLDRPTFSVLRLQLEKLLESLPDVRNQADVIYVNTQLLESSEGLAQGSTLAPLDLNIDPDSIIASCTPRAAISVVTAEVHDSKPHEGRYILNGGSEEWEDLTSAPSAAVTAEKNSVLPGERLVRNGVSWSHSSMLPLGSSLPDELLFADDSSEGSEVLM
The settings on record: c-MER (A708S), 10 uM; for remaining activity at 10 µM: read-out: % Enzyme Activity (relative to DMSO controls).

The target in test [2] is T2, 382 unique human kinases (Homo sapiens, UniProt O00311).
T2 construct: purchased Reaction Biology (HotSpot contract assay)
T2 sequence (O00311 whole entry): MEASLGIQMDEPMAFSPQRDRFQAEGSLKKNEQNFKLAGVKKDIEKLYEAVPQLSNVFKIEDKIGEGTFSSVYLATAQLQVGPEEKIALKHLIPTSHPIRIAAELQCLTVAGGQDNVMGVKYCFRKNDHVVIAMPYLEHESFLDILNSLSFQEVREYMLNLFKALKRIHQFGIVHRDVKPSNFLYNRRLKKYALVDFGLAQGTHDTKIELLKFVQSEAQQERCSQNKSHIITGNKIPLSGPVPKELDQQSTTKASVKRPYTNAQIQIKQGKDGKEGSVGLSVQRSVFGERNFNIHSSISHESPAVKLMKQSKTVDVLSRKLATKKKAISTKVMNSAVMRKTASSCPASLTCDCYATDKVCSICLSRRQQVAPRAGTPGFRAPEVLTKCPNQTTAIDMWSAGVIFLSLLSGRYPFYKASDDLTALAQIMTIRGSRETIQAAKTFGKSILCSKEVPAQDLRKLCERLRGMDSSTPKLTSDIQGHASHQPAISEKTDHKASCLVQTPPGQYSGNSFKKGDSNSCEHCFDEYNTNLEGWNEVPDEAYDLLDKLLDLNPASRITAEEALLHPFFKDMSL
The settings on record: kinase CDC7/DBF4, compound 10 uM; for remaining activity at 10 µM: read-out: % Enzyme Activity (relative to DMSO controls).

Test [3] concerns the target T3, 382 unique human kinases (Homo sapiens, UniProt Q96PN8).
T3 construct: purchased Reaction Biology (HotSpot contract assay)
T3 sequence (Q96PN8 1-268): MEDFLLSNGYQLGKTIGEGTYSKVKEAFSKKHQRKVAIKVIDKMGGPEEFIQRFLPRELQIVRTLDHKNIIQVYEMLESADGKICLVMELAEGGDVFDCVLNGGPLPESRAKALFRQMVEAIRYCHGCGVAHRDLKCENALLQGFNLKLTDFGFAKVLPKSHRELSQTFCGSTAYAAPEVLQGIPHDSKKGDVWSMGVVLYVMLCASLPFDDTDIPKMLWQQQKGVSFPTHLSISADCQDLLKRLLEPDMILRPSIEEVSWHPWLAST
The settings on record: kinase TSSK3/STK22C, compound 10 uM; for remaining activity at 10 µM: read-out: % Enzyme Activity (relative to DMSO controls).

The target of test [4] is T4, 382 unique human kinases (Homo sapiens, UniProt Q8TD08).
T4 construct: purchased Reaction Biology (HotSpot contract assay)
T4 sequence (Q8TD08 1-544): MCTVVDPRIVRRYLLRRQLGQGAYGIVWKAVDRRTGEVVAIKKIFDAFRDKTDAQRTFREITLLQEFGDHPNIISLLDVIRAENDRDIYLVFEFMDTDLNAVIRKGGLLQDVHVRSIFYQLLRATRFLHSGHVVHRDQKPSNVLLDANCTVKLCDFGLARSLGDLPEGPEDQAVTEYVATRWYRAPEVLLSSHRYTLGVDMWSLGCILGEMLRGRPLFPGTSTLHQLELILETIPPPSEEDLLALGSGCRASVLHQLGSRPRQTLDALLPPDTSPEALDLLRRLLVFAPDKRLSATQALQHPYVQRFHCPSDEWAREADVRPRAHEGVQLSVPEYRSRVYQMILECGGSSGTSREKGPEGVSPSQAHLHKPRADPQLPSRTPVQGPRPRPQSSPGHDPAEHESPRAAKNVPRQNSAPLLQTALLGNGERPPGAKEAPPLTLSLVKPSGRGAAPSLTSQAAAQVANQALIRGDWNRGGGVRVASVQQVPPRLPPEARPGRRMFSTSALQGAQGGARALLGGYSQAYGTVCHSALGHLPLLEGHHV
To be noted: kinase ERK7/MAPK15, compound 10 uM; for remaining activity at 10 µM: read-out: % Enzyme Activity (relative to DMSO controls).

Test [5] has as its target T5, 382 unique human kinases (Homo sapiens, UniProt Q14289).
T5 construct: purchased Reaction Biology (HotSpot contract assay)
To be noted: PYK2, 10 uM; for remaining activity at 10 µM: read-out: % Enzyme Activity (relative to DMSO controls).

Test [6] has as its target T6, 382 unique human kinases (Homo sapiens, UniProt Q13557).
T6 construct: purchased Reaction Biology (HotSpot contract assay)
The settings on record: CAMK2d, 10 uM; for remaining activity at 10 µM: read-out: % Enzyme Activity (relative to DMSO controls).

The target of test [7] is T7, 382 unique human kinases (Homo sapiens, UniProt P21802, N549H).
T7 construct: purchased Reaction Biology (HotSpot contract assay)
T7 sequence (P21802 22-821 N549H): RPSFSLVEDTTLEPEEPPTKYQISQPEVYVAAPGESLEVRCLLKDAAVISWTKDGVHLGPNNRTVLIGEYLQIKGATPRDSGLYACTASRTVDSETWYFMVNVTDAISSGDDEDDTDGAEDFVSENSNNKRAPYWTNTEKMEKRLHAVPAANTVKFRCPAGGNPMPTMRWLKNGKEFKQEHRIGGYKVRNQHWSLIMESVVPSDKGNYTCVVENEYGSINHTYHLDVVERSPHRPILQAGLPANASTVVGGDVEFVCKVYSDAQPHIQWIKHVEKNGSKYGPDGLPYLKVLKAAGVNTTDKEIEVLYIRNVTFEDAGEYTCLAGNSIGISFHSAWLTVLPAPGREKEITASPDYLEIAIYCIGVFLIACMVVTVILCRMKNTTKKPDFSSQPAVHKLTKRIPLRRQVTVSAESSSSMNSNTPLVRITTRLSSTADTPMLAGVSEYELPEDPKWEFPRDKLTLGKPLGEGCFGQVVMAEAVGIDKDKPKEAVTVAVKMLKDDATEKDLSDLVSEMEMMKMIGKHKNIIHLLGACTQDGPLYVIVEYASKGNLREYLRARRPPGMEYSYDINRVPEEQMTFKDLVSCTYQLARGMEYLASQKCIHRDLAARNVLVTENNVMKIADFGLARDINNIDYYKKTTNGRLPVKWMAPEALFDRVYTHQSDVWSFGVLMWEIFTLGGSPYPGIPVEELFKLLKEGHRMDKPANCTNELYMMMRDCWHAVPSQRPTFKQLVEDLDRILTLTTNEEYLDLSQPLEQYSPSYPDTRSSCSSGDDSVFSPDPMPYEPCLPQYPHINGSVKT
The settings on record: kinase FGFR2 (N549H), compound 10 uM; for remaining activity at 10 µM: read-out: % Enzyme Activity (relative to DMSO controls).

Test [8] addresses T8, 382 unique human kinases (Homo sapiens, UniProt P06239).
T8 construct: purchased Reaction Biology (HotSpot contract assay)
To be noted: LCK, [ATP] 15 µM.

Test [9] concerns the target T9, 382 unique human kinases (Homo sapiens, UniProt P00533, DEL752-759).
T9 construct: purchased Reaction Biology (HotSpot contract assay)
To be noted: EGFR (d752-759), 10 uM; for remaining activity at 10 µM: read-out: % Enzyme Activity (relative to DMSO controls).

In test [10] the target is T10, 382 unique human kinases (Homo sapiens, UniProt O60674).
T10 construct: purchased Reaction Biology (HotSpot contract assay)
T10 sequence (O60674 whole entry): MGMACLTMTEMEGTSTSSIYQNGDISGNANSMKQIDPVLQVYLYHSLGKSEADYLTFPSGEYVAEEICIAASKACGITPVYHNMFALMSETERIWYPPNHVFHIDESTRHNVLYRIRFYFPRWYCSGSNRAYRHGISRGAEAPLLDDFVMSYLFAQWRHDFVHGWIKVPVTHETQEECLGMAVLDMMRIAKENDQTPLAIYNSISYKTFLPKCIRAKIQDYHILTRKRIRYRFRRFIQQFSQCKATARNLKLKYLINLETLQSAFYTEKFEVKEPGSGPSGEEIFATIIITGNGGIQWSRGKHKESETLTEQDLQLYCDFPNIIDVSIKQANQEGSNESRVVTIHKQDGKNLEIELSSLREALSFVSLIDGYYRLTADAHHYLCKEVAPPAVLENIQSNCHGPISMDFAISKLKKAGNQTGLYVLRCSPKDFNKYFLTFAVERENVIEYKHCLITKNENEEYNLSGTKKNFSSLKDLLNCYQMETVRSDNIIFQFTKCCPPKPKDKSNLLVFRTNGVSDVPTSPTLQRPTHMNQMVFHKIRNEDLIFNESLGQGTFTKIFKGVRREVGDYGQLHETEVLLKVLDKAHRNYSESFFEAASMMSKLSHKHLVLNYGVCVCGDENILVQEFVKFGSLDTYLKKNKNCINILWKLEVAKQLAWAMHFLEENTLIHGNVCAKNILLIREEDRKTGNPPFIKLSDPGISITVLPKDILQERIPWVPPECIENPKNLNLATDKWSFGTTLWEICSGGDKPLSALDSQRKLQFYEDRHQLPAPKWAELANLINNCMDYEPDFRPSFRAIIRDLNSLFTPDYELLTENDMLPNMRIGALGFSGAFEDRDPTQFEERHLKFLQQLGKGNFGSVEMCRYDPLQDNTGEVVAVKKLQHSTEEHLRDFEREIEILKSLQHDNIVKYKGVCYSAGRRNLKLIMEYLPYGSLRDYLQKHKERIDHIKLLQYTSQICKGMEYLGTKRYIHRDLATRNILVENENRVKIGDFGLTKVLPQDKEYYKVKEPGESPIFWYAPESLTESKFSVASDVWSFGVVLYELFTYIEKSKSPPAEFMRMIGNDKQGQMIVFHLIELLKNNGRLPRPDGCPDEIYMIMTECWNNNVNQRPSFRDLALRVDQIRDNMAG
The settings on record: JAK2, [ATP] 2.5 µM, compound 10 uM; for remaining activity at 10 µM: read-out: % Enzyme Activity (relative to DMSO controls).

Test [11] concerns the target T11, 382 unique human kinases (Homo sapiens, UniProt P27361).
T11 construct: purchased Reaction Biology (HotSpot contract assay)
To be noted: ERK1, 10 uM; for remaining activity at 10 µM: read-out: % Enzyme Activity (relative to DMSO controls).

The target in test [12] is T12, 382 unique human kinases (Homo sapiens, UniProt Q9UM73, C1156Y).
T12 construct: purchased Reaction Biology (HotSpot contract assay)
T12 sequence (Q9UM73 19-1620 C1156Y): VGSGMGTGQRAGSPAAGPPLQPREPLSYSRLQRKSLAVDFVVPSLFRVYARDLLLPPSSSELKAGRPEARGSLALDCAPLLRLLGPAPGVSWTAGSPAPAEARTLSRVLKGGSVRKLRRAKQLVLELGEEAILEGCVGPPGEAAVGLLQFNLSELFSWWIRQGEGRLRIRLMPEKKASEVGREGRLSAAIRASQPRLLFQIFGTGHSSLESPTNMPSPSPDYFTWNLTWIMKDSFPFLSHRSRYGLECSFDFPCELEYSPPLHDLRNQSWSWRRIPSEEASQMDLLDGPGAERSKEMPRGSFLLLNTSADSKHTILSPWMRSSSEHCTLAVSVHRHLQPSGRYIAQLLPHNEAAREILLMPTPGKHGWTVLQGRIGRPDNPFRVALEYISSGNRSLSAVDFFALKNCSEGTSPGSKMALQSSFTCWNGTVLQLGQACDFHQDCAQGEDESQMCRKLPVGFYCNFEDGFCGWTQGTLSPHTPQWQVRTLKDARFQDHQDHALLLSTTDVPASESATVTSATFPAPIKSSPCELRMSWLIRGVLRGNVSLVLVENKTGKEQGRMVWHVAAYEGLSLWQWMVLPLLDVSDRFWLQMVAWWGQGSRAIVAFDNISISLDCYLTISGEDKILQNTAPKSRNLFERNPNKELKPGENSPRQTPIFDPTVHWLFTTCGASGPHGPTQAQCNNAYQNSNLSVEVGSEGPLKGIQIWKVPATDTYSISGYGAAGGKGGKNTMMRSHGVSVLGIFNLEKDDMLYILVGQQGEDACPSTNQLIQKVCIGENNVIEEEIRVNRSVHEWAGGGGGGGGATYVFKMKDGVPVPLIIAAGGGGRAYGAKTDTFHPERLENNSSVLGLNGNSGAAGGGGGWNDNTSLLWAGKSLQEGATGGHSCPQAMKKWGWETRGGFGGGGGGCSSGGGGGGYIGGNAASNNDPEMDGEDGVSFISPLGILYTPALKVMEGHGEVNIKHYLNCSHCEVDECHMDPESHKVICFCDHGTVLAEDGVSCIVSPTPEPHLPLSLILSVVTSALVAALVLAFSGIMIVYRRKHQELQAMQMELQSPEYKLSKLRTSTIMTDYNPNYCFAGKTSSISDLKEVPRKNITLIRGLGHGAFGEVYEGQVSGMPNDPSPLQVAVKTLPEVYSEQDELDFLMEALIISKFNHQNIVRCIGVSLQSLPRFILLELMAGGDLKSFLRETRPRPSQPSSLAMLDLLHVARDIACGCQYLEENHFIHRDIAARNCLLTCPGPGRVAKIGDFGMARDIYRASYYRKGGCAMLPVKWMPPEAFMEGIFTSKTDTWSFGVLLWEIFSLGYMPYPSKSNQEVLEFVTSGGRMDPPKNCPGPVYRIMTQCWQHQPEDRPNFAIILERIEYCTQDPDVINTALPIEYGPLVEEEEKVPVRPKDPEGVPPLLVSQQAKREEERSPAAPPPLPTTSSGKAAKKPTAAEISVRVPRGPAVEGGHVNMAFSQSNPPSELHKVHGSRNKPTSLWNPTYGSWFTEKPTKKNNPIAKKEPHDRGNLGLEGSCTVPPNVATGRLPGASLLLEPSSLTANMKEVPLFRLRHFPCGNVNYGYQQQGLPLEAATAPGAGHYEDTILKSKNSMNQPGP
To be noted: ALK (C1156Y), [ATP] 5 µM, compound 10 uM; for remaining activity at 10 µM: read-out: % Enzyme Activity (relative to DMSO controls).

Test [13] concerns the target T13, 382 unique human kinases (Homo sapiens, UniProt Q9UM73, T1151M).
T13 construct: purchased Reaction Biology (HotSpot contract assay)
The settings on record: ALK (T1151M), [ATP] 50 µM, compound 10 uM; for remaining activity at 10 µM: read-out: % Enzyme Activity (relative to DMSO controls).

[14] abbreviates: compound 10 uM, read-out: % Enzyme Activity (relative to DMSO controls).

T8 sequence (P06239 whole entry): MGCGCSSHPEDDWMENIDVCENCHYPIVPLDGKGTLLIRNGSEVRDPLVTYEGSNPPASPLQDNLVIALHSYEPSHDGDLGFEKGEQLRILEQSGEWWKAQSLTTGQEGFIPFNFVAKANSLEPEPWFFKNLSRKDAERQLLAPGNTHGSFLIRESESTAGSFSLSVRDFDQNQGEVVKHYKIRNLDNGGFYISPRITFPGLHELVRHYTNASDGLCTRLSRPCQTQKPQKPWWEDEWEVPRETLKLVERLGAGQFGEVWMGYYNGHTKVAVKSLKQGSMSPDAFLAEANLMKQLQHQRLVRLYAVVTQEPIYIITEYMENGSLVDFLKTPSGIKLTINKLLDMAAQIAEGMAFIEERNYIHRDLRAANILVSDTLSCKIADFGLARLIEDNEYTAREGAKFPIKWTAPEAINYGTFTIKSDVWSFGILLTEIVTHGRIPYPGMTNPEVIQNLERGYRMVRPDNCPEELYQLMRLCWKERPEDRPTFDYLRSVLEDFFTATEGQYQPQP
T11 sequence (P27361 whole entry): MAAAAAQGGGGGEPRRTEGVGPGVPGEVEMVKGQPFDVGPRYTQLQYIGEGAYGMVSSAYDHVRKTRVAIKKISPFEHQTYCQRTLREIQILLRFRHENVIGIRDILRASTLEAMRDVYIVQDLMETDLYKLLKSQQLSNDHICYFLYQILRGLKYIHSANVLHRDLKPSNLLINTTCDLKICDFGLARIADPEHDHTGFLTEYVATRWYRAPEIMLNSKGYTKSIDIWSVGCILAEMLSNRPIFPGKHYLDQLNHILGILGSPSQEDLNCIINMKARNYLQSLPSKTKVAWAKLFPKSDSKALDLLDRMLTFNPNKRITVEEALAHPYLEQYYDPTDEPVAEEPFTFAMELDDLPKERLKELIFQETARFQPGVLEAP
T13 sequence (Q9UM73 19-1620 T1151M): as the sequence (Q9UM73 19-1620 C1156Y) above, with T1133M, Y1138C counted along it

Turning to `CC(C)c1cc(-c2n[nH]c(=O)n2-c2ccc3c(ccn3C)c2)c(O)cc1O` [Ganetespib (STA9090)], the remaining activity at 10 µM on 382 unique human kinases [1] came out at 72.7%; on 382 unique human kinases [2] it was 85.9%; at 382 unique human kinases [3], 93.1%; at 382 unique human kinases [4], 84.8%; on 382 unique human kinases [5] it was 78.5%; on 382 unique human kinases [6], 72.8%. On 382 unique human kinases [7], the remaining activity at 10 µM was 79.3%.

For the compound `CC(C)c1cc(-c2n[nH]c(=O)n2-c2ccc3c(ccn3C)c2)c(O)cc1O` [Ganetespib], the remaining activity at 1 µM at 382 unique human kinases [8] (compound 1 uM, read-out: % Enzyme Activity (relative to DMSO controls)) stood at 49.3%. Besides, the remaining activity at 10 µM turned out to be 13.9% on 382 unique human kinases [8] (setting [14]); 103% at 382 unique human kinases [9]; 57.1% at 382 unique human kinases [10]; 101% at 382 unique human kinases [11]; 20% at 382 unique human kinases [12]; 45.5% at 382 unique human kinases [13].

Take `CCNC(=O)c1noc(-c2cc(C(C)C)c(O)cc2O)c1-c1ccc(CN2CCOCC2)cc1` [Luminespib (AUY-922)]: the “% Enzyme Activity (relative to DMSO controls)” value came to 96.08% at 382 unique human kinases [1]; 105.45% on 382 unique human kinases [2]; 144.69% at 382 unique human kinases [3]; 97.45% on 382 unique human kinases [4]; 97.56% at 382 unique human kinases [5]; 89.83% at 382 unique human kinases [6]. Also, the “% Enzyme Activity (relative to DMSO controls)” value at 382 unique human kinases [7] amounted to 106.42%. Besides, the remaining activity at 10 µM on 382 unique human kinases [1] worked out at 98.6%; at 382 unique human kinases [2] it was 107%; on 382 unique human kinases [3] it was 147%; at 382 unique human kinases [4], 102%; on 382 unique human kinases [5], 98.8%; at 382 unique human kinases [6], 89.9%. For the same compound, the remaining activity at 10 µM on 382 unique human kinases [7] was determined as 107%.

For the compound `CCNC(=O)c1noc(-c2cc(C(C)C)c(O)cc2O)c1-c1ccc(CN2CCOCC2)cc1` [Luminespib], the “% Enzyme Activity (relative to DMSO controls)” value on 382 unique human kinases [8] (compound 10 uM) turned out to be 58.73%; at 382 unique human kinases [9], 98.01%; at 382 unique human kinases [10] it was 97.09%; on 382 unique human kinases [11], 95.87%; on 382 unique human kinases [12] it was 91.42%; at 382 unique human kinases [13], 99.07%. The remaining activity at 10 µM on 382 unique human kinases [8] (setting [14]) was found to be 61%; on 382 unique human kinases [9], 99.4%; on 382 unique human kinases [10], 99.6%; at 382 unique human kinases [11], 96.1%; at 382 unique human kinases [12], 93.3%; on 382 unique human kinases [13], 99.2%.
